The supplement of paper PMC8671470

Key:
Test in all cases: cell viability (% survival relative to DMSO control, bortezomib = 0%); higher = less cytotoxic
Conditions in all cases: 72 h
[1] = system: SHI-1
In short: (§1)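 Percent survival is reported as the mean of duplicate wells. Cells from 10 AML and 5 CML lines were plated in 384-well plates containing compounds at 1, 10, 100, 1000 or 10000 nM and kept for 72 h at 37 °C in 5% CO2. Readout used CellTiter-Glo luminescence, scaled so that vehicle equals 100% and a 10 µM positive control equals 0%.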

[2] = system: BV-173
In short: as §1

[3] = system: Mono-Mac-6
In short: as §1

[4] = system: KU-812
In short: as §1

Compound	cell viability ([1]; 1 nM) [%]	cell viability ([1]; 10 nM) [%]	cell viability ([1]; 100 nM) [%]	cell viability ([1]; 1000 nM) [%]	cell viability ([1]; 10000 nM) [%]	cell viability ([2]; 1 nM) [%]	cell viability ([2]; 10 nM) [%]	cell viability ([2]; 100 nM) [%]	cell viability ([2]; 1000 nM) [%]	cell viability ([2]; 10000 nM) [%]	cell viability ([3]; 1 nM) [%]	cell viability ([3]; 10 nM) [%]	cell viability ([3]; 100 nM) [%]	cell viability ([3]; 1000 nM) [%]	cell viability ([3]; 10000 nM) [%]	cell viability ([4]; 1 nM) [%]	cell viability ([4]; 10 nM) [%]	cell viability ([4]; 100 nM) [%]	cell viability ([4]; 1000 nM) [%]	cell viability ([4]; 10000 nM) [%]
COc1cc2c(NC3CCN(C)CC3)nc(N3CCCN(C)CC3)nc2cc1OCCCN(C)C [UNC0224]	91.9	108	102	93.1	73.7	109	117	103	91.6	83.3	100	116	101	98.5	81.4	98.7	107	89.8	106	79.5
CN(C)c1nc(O)c2[nH]cnc2n1 [2-Dimethylamino-6-hydroxypurine]	104	90.8	94.8	99.9	98.2	104	93	93.5	121	93.9	97.2	100	86.9	99.4	113	93.8	96.7	91	94.2	103
O=C(O)c1cc2sccc2[nH]1 [4H-thieno[3,2-b]pyrrole-5-carboxylic acid]	108	96.4	90.4	97	107	104	102	102	99.1	100	104	92.6	99.5	92.6	101	95.9	98.3	98.9	101	108
C1CCC(C(CC2CCCCN2)C2CCCCC2)CC1.O=C(O)/C=C\C(=O)O (stereo not given) [Perhexiline]	95	92	103	102	0.332	87.1	96.1	93.8	98.9	0.141	91.8	87.4	85.9	98.6	1.23	96.3	85.1	94.9	99	8.47
O=C1Oc2ccccc2C(=O)C1CC1C(=O)Oc2ccccc2C1=O (stereo not given) [Dicumarol]	95.8	105	104	106	105	89.5	107	91.8	94.1	109	103	111	86.5	95.7	106	110	95.6	84.2	97.8	107
CCOC(=O)N1c2ccc(C(F)(F)F)cc2[C@@H](N(Cc2cc(C(F)(F)F)cc(C(F)(F)F)c2)C(=O)OC)C[C@H]1CC [Torcetrapib]	94.8	105	132	114	99.8	82.9	94	67	49.3	26.9	109	109	107	90.8	78.2	101	112	113	102	83.8
Nc1ccn([C@@H]2O[C@H](CO)[C@@H](O)[C@@H]2O)c(=O)n1 [Cytarabine]	102	92.6	58	14.6	2.46	102	16.4	0.292	-1.03	0.0249	95.1	86.4	79.8	19.1	3.49	97	81.8	24.6	7.19	5.66
CC(C(=O)O)C(=O)O [Methylmalonate]	98.9	83.3	105	88.7	97	92.5	89.2	104	98.3	96.1	96.2	93	106	96.1	90.3	90.1	93.7	97	90.5	85.6
CC(C)C[C@H](NC(=O)[C@@H](O)[C@H](N)Cc1ccccc1)C(=O)O [Ubenimex]	99.4	104	93.2	80.5	91.3	97.5	110	90.8	78.9	99.9	99.5	116	96.4	83.1	90.1	110	109	97.8	97.4	115
Cc1noc2c1-c1ccccc1C(c1ccc(Cl)cc1)=N[C@H]2CC(N)=O [CPI-0610]	105	94.5	88.8	44.4	21.8	92.3	87.8	83.4	33.5	10.9	99.7	89.3	65.7	17	15.9	97.2	99.8	73.1	36	4.66
O=C(c1ccc(OCCN2CCCCC2)cc1)c1c(-c2ccc(O)cc2)sc2cc(O)ccc12 [Raloxifene]	97	102	107	110	89.5	93	95.9	98.2	107	92.7	109	95.2	107	104	77	97.1	95.8	95.3	93	70.6
C=CCc1ccc2c(c1O)C(=O)c1ccccc1C2=O [R162]	101	99.7	104	118	101	101	97	89.9	125	118	101	93.4	103	123	115	98.5	89.9	95.1	125	92.1
NC(=O)c1ncn([C@@H]2O[C@H](CO)[C@@H](O)[C@H]2O)n1 [Ribavirin]	105	112	111	111	111	93.7	106	112	101	91.4	92.1	103	96.4	101	112	81.4	92.7	91.3	104	94.6
